Reference: patent US7387806B2, “Method of using geranium oil and sophora root extracts as a supporting composition in cancer treatments” (priority 2001, dated 2008)

Test: Pharmacokinetics study of intravenous injection of matrine or oxymatrine with addition of geranium oil
Description: The Sophora root typically is about 10-30 cm long, 1-2 cm in diameter and generally takes on a grayish brown or grayish yellow color. The root preferably has a mild scent and an extremely bitter taste. It is grown mainly in China, Korea, and Japan. Presently, the alkaloids identified in Sophora roots are matrine, oxymatrine, sophoranol, N-methylcytisine, anagyrine, baptifoline, sophocarpine, sophoridine, iso matrine, 7, 11-Dehydromatrine, sophoramine, 7-Dehydrosophoramine, 9α-Hydroxy-Sophoramine, 5α,9α-Dihydroxymatrine, N-Oxysophocarpine, sophoranol N-oxide, rhombifoline, Lupanine, Mamanine, Kuraramine, Isokuraramine, Kurarinol. The known main constituents are matrine, oxymatrine. The principal main constituents of Sophora flavescenes are also found in Sophora subprostrata, Sophora tonkinensis, Sophora alopecuroides, Sophora moorcroftiana, and Euchresta strigillosa.

Row | SMILES | effect of addition of geranium oil on absorption and metabolism of the compound (in vivo, iv) | effect of addition of geranium oil on absorption and metabolism of the compound (intravenous injection, with vs without geranium oil)
1 | O=C1CCC[C@@H]2[C@H]3CCC[N+]4([O-])CCC[C@@H](CN12)[C@@H]34 (some centres unmarked) [oxymatrine] | increase the absorption and metabolism | 
2 | O=C1CCC[C@@H]2[C@H]3CCCN4CCC[C@@H](CN12)[C@@H]34 [matrine] |  | increase the absorption and metabolism
